Laboratory results published in patent US5041567A, “Antibacterial monic acid derivatives” (Beecham Group plc, priority 1982, dated 1991).
Where two headings read alike, the source gives them in different places.

What was measured:
[1] = system: M. suipneumoniae HK(2); experiment: MIC against mycoplasma in vitro; assay type: cell-based
[2] = system: M. hyorhinis ATCC 23234; experiment: MIC against mycoplasma in vitro; assay type: cell-based
[3] = system: Bord. bronchiseptica B09; experiment: MIC against veterinary bacteria in vitro
Procedure: (§1) The activity of the compounds of the Examples against various veterinarily important bacteria, was assayed in vitro using two-fold serial dilutions in Diagnostic Sensitivity Test Agar inoculated with 10^4 organisms.

[4] = system: Staph. aureus Oxford; experiment: MIC against veterinary bacteria in vitro
Procedure: as §1

[5] = system: M. suipneumoniae MS 16; experiment: MIC against mycoplasma in vitro; assay type: cell-based; conditions: M. suipneumoniae MS 16, 6 days, 37° C.
[6] = system: M. bovigenitalium ATCC 14173; experiment: MIC against mycoplasma in vitro; assay type: cell-based
[7] = system: Sarcina lutea 8340; experiment: MIC against human bacteria in vitro; assay type: cell-based; conditions: Sarcina lutea 8340, 5% chocolated horse blood agar, 18 hours
[8] = system: M. gallisepticum S6; experiment: MIC against mycoplasma in vitro; assay type: cell-based; conditions: M. gallisepticum S6, 6 days, 37° C.
[9] = system: Bord. bronchiseptica B08; experiment: MIC against veterinary bacteria in vitro
Procedure: as §1

[10] = system: Haemophilus influenzae Wy21; experiment: MIC against human bacteria in vitro; assay type: cell-based; conditions: Haemophilus influenzae Wy21, 5% chocolated horse blood agar, 18 hours
[11] = system: Pasteurella multocida 1633; experiment: MIC against human bacteria in vitro; assay type: cell-based; conditions: Pasteurella multocida 1633, 5% chocolated horse blood agar, 18 hours
[12] = system: Erysipelothrix rhusiopathiae NCTC 8163; experiment: MIC against veterinary bacteria in vitro
Procedure: as §1

[13] = system: Ps. aeruginosa NCTC 10662; experiment: MIC against human bacteria in vitro; assay type: cell-based; conditions: Ps. aeruginosa NCTC 10662, 5% chocolated horse blood agar, 18 hours
[14] = system: S. typhimurium S18; experiment: MIC against veterinary bacteria in vitro
Procedure: as §1

[15] = system: M. suipneumoniae JF 435; experiment: MIC against mycoplasma in vitro; assay type: cell-based
[16] = system: Staph. aureus W2827; experiment: MIC against human bacteria in vitro; assay type: cell-based; conditions: Staph. aureus W2827, 5% chocolated horse blood agar, 18 hours
[17] = system: Strep. agalactiae 2788-B; experiment: MIC against human bacteria in vitro; assay type: cell-based; conditions: Strep. agalactiae 2788-B, 5% chocolated horse blood agar, 18 hours
[18] = system: E. coli ESS; experiment: MIC against human bacteria in vitro; assay type: cell-based; conditions: E. coli ESS, 5% chocolated horse blood agar, 18 hours
[19] = system: M. pneumoniae ATCC 15492; experiment: MIC against mycoplasma in vitro; assay type: cell-based
[20] = system: Strep. agalactiae SPA1; experiment: MIC against veterinary bacteria in vitro
Procedure: as §1

[21] = system: Strep. spp. 64/848-C; experiment: MIC against human bacteria in vitro; assay type: cell-based; conditions: Strep. spp. 64/848-C, 5% chocolated horse blood agar, 18 hours
[22] = system: M. suipneumoniae ATCC 25095; experiment: MIC against mycoplasma in vitro; assay type: cell-based
[23] = system: E. coli E1; experiment: MIC against veterinary bacteria in vitro
Procedure: as §1

[24] = system: M. suipneumoniae NCTC 10110; experiment: MIC against mycoplasma in vitro; assay type: cell-based; conditions: M. suipneumoniae NCTC 10110, 6 days, 37° C.
[25] = system: S. dublin S7; experiment: MIC against veterinary bacteria in vitro
Procedure: as §1

[26] = system: M. suipneumoniae UCD 1; experiment: MIC against mycoplasma in vitro; assay type: cell-based
[27] = system: E. coli NCTC 10418; experiment: MIC against veterinary bacteria in vitro
Procedure: as §1

[28] = system: M. suipneumoniae TAM 6N; experiment: MIC against mycoplasma in vitro; assay type: cell-based
[29] = system: Staph. aureus 152 (pen. sens); experiment: MIC against veterinary bacteria in vitro
Procedure: as §1

[30] = system: Strep. suis (group D) SPS11; experiment: MIC against veterinary bacteria in vitro
Procedure: as §1

[31] = system: Staph. aureus Russell; experiment: MIC against human bacteria in vitro; assay type: cell-based; conditions: Staph. aureus Russell, 5% chocolated horse blood agar, 18 hours
[32] = system: M. suipneumoniae NB12; experiment: MIC against mycoplasma in vitro; assay type: cell-based; conditions: Mesomycoplasma hyopneumoniae, NB12, 144 h
[33] = Staphylococcus aureus, read-out: MIC

Measured: MIC

CC(=Cc1cnc(-c2ccccc2)o1)CC1OCC(CC2OC2C(C)C(C)O)C(O)C1O (stereo not drawn) [Example 35, 5-(1-Normon-2-yl)-2-phenyloxazole A]
> 128 µg/mL: [7] | [11] | [13] | [16] | [17] | [21] | [31]
> 80 µg/mL: [3]; Bord. bronchiseptica B09, Diagnostic Sensitivity Test Agar, 18 hours | [4]; Staph. aureus Oxford, Diagnostic Sensitivity Test Agar, 18 hours | [9]; Bord. bronchiseptica B08, Diagnostic Sensitivity Test Agar, 18 hours | [12]; Erysipelothrix rhusiopathiae NCTC 8163, Diagnostic Sensitivity Test Agar, 18 hours | [14]; S. typhimurium S18, Diagnostic Sensitivity Test Agar, 18 hours | [20]; Strep. agalactiae SPA1, Diagnostic Sensitivity Test Agar, 18 hours | [23]; E. coli E1, Diagnostic Sensitivity Test Agar, 18 hours, 37° C. | [25]; S. dublin S7, Diagnostic Sensitivity Test Agar, 18 hours | [27]; E. coli NCTC 10418, Diagnostic Sensitivity Test Agar, 18 hours, 37° C. | [29]; Staph. aureus 152 (pen. sens), Diagnostic Sensitivity Test Agar, 18 hours | [30]; Strep. suis (group D) SPS11, Diagnostic Sensitivity Test Agar, 18 hours
> 10 µg/mL: [1]; M. suipneumoniae HK(2), 6 days, 37° C. | [2]; M. hyorhinis ATCC 23234, 6 days, 37° C. | [5] | [8] | [15]; M. suipneumoniae JF 435, 6 days, 37° C. | [19]; M. pneumoniae ATCC 15492, 6 days, 37° C. | [22]; M. suipneumoniae ATCC 25095, 6 days, 37° C. | [24] | [26]; M. suipneumoniae UCD 1, 6 days, 37° C. | [28]; M. suipneumoniae TAM 6N, 6 days, 37° C.
128 µg/mL: [10] | [18]
5.0 µg/mL: [6]; M. bovigenitalium ATCC 14173, 6 days, 37° C.

C/C(=C\c1ncc(CCCCCCCCO)o1)C[C@@H]1OC[C@H](C[C@@H]2O[C@H]2[C@@H](C)[C@H](C)O)[C@@H](O)[C@H]1O [Example 19, 5-(8-Hydroxyoctyl)-2-(1-normon-2-yl) oxazole A]
1 µg/mL: [2]; Mesomycoplasma hyorhinis, ATCC23234, 144 h | [32] | [19]; Mycoplasmoides pneumoniae, ATCC15492, 144 h | [22]; Mesomycoplasma hyopneumoniae, ATCC25095, 144 h
32 µg/mL: [11]; read-out: MIC
2.5 µg/mL: [1]; Mesomycoplasma hyopneumoniae, 144 h | [4]; Staphylococcus aureus, 18 h | [15]; Mesomycoplasma hyopneumoniae, JF435, 144 h | [26]; Mesomycoplasma hyopneumoniae, UCD1, 144 h | [28]; Mesomycoplasma hyopneumoniae, TAM6N, 144 h
10 µg/mL: [8]; Mycoplasmoides gallisepticum, 144 h, read-out: MIC | [20]; Streptococcus agalactiae, SPA1, 18 h
1.25 µg/mL: [29]; Staphylococcus aureus, 18 h
5 µg/mL: [24]; Mesomycoplasma hyopneumoniae, NCTC10110, 144 h, read-out: MIC
4 µg/mL: [10]; read-out: MIC | [16]; [33] | [31]; [33]
16 µg/mL: [17]; Streptococcus agalactiae, read-out: MIC | [18]; Escherichia coli, read-out: MIC | [21]; read-out: MIC
> 80 µg/mL: [9]; Bordetella bronchiseptica, B08, 18 h | [12]; Erysipelothrix rhusiopathiae, NCTC8163, 18 h | [14]; Salmonella enterica, TYPHIMURIUM, 18 h | [23]; Escherichia coli, E1, 18 h | [25]; Salmonella enterica, S7, 18 h | [27]; Escherichia coli, NCTC10418, 18 h
> 128 µg/mL: [13]; Pseudomonas aeruginosa, NCTC10662, read-out: MIC
128 µg/mL: [7]; Micrococcus luteus, read-out: MIC
0.1 µg/mL: [6]; 144 h
80 µg/mL: [30]; Streptococcus suis, 18 h
20 µg/mL: [3]; Bordetella bronchiseptica, B09, 18 h
0.5 µg/mL: [5]; Mesomycoplasma hyopneumoniae, MS16, 144 h, read-out: MIC
